{
  "source": "patent US9585858B2",
  "about": "“Pharmaceutical composition containing 13 triglycerides, and preparations and use thereof” (ZHEJIANG KANGLAITE GROUP CO., LTD., priority 2014, dated 2017)",
  "key": {"Splenocytes": {"tested_on": "Splenocytes", "assay": "Splenic lymphopoiesis induced by ConA in mice in vitro (3H-TdR incorporation)", "format": "cell-based, C57BL/6 mice", "method": "Spleens were picked up from C57BL/6 mice in aseptic condition. Splenocytes were separated and the concentration of cells was adjusted to 1×10^7 cells/ml with RPMI 1640+15% FCS medium. The experiment groups were as follows: the injection of the invention in four concentrations, lentinan (positive control group) in four concentrations, corresponding solvent (blank control I) and medium (blank control II). 100 μl Cells, 100 μl solution of drug/control and 50 μl ConA were added in each well in triplicate. The 96 well microplate was incubated in a 37° C. incubator under 5% CO2 for 48 h. ^3H-TdR (0.5 μci/well) was added and the incubation was continued for 20 h. Cells were collected, and CPM values were determined in a liquid scintillation counter and compared with control groups. It is shown in the results (table 3) that the injection of the invention, as same as lentinan, has obviously facilitated the splenic lymphopoiesis in mice in vitro and the effect is linear dependent to the concentration."}, "[1]": {"tested_on": "mice bearing L1210 leukemia cells", "assay": "Splenic lymphopoiesis in mice bearing L1210 leukemia cells", "format": "in vivo, DBA/2 mice", "conditions": "20 mg/kg, iv × 7", "method": "Each of 60 DBA/2 mice was inoculated subcutaneously with 1×10^4 L1210 leukemia cells of mice. Next day, the mice were grouped randomly into 6 groups (10 mice per group): Lentinan 20 mg/kg, the injection of the invention (6.25 ml/kg, 12.5 ml/kg and 25 ml/kg), solvent control and NS control. Animals were administered, i.v., for 7 days, then sacrificed. Spleens were picked up in aseptic condition. Splenocytes were counted and adjusted into 1×10^7/ml. Cells (100 μl/well) and medium (100 μl/well) were added into wells of a 96 well microplate in triplicate. The 96 well microplate was incubated in a 37° C. incubator under 5% CO2 for 48 h. Then, ^3H-TdR (0.5 μci/well) was added and the incubation was continued for 20 h. Cells were collected, and CPM values were determined and compared with control groups. […] Lentinan has also shown immuno-enhancement effect."}, "NK cells [2]": {"tested_on": "NK cells", "assay": "Activity of NK cells in mice bearing cancer", "format": "in vivo, DBA/2 mice", "conditions": "20 mg/kg, iv × 7", "method": "Each of 60 DBA/2 mice was inoculated subcutaneously with 1×10^4 L1210 leukemia cells of mice. Next day, the mice were grouped randomly into 6 groups (10 mice per group): Lentinan 20 mg/kg, the injection of the invention (6.25 ml/kg, 12.5 ml/kg and 25 ml/kg), solvent control and NS control. Animals were administered, i.v., for 7 days, then sacrificed. Spleens were picked up in aseptic condition. Splenocytes were prepared and adjusted into 1×10^6/ml. The activity of NK cells was detected by using the inhibition on ^3H-TdR incorporation. To wells of a 96 well microplate were added splenocytes cells (effector cells) 100 μl/well, YAC-1 cells (target cells, 1×10^4 cells/ml) 100 μl/well and ^3H-TdR 0.5 μci/well, in triplicate. After being incubated in a 37° C. incubator under 5% CO2 for 24 h, cells were collected, and CPM values were determined. The specific percentage inhibition (Pi), indicating the activity of NK cells, was calculated according to the above formula."}, "NK cells [3]": {"tested_on": "NK cells", "assay": "Activity of NK cells in mice in vitro (inhibition of 3H-TdR incorporation, YAC-1 target cells)", "format": "cell-based, C57BL/6 mice", "conditions": "for CPM (x ± SD), activity of NK cells in mice in vitro: splenocytes:YAC-1 100:1, 24 h", "method": "Method: The activity of NK cells were detected by the inhibition on ^3H-TdR incorporation.\nSpleens were picked up from C57BL/6 mice in aseptic condition. Splenocytes, as effector cells, were adjusted to 1×10^6 cells/ml. YAC-1 cells, target cells, which have been cultured for 24 h, were adjusted to 1×10^4 cells/ml. The cells were added into wells of a 96 well microplate (100 μl/well). The experiment groups were as follows: the injection of the invention in four concentrations, lentinan (positive control group) in four concentrations, corresponding solvent (blank control I) and medium (blank control II). To each well of a 96 well microplate were added Splenocytes: YAC-1 cells=100: 1 (100 μl), test sample (100 μl) and ^3H-TdR 0.5 μci/well. After being incubated in a 37° C. incubator under 5% CO2 for 24 h, cells were collected, and CPM values were determined. The specific percentage inhibition (Pi), indicating the activity of NK cells, was calculated according to the formula: Pi=(1−CPMExp./CPMcont.)×100%"}, "IL-2": {"tested_on": "IL-2", "assay": "Production of IL-2 in mice suffering from L1210 leukemia (CTLL cell 3H-TdR incorporation)", "format": "in vivo, DBA/2 mice", "conditions": "20 mg/kg, iv × 7", "method": "Each of 60 DBA/2 mice was inoculated subcutaneously with 1×10^4 L1210 leukemia cells of mice. Next day, the mice were grouped randomly into 6 groups (10 mice per group): Lentinan 20 mg/kg, the injection of the invention (6.25 ml/kg, 12.5 ml/kg and 25 ml/kg), solvent control and NS control. Animals were administered, i.v., for 7 days, then sacrificed. Spleens were picked up in aseptic condition. Splenocytes were prepared and adjusted into 1×10^7/ml. To each well of a 24 well plate were added splenocytes cells (2 ml) and Con A (5 μg/ml). After the plate was incubated in a 37° C. incubator under 5% CO2 for 24 h, the supernate was collected. The activity of IL-2 was determined in IL-2 dependent CTLL cell strain by using the method of ^3H-TdR incorporation."}},
  "data": [
    {"substance": "Lentinan", "values": [
      {"measurement": "CPM (x ± SD), splenic lymphopoiesis in mice in vitro", "setting": "Splenocytes; 100 μl (1:1)", "result": "7700 ± 747", "unit": "CPM"},
      {"measurement": "CPM (x ± SD), splenic lymphopoiesis in mice in vitro", "setting": "Splenocytes; 100 μl (1:2)", "result": "11025 ± 1133", "unit": "CPM"},
      {"measurement": "CPM (x ± SD), splenic lymphopoiesis in mice in vitro", "setting": "Splenocytes; 100 μl (1:4)", "result": "11555 ± 1279", "unit": "CPM"},
      {"measurement": "CPM (x ± SD), splenic lymphopoiesis in mice in vitro", "setting": "Splenocytes; 100 μl (stock solution)", "result": "7420 ± 957", "unit": "CPM"},
      {"measurement": "CPM (x ± SD), splenic lymphopoiesis in mice bearing L1210 leukemia cells", "setting": "[1]", "result": "7410 ± 770", "unit": "CPM"},
      {"measurement": "CPM (x ± SD), activity of NK cells in mice bearing cancer", "setting": "NK cells [2]", "result": "5660 ± 260", "unit": "CPM"},
      {"measurement": "Pi (%), activity of NK cells in mice bearing cancer", "setting": "NK cells [2]", "result": 54.5, "unit": "%"},
      {"measurement": "Pi % (specific percentage inhibition, activity of NK cells) in vitro", "setting": "NK cells [3]; 100 μl (1:1)", "result": 33.5, "unit": "%"},
      {"measurement": "CPM (x ± SD), activity of NK cells in mice in vitro", "setting": "NK cells [3]; 100 μl (1:1)", "result": "8130 ± 930", "unit": "CPM"},
      {"measurement": "Pi % (specific percentage inhibition, activity of NK cells) in vitro", "setting": "NK cells [3]; 100 μl (1:2)", "result": 35.5, "unit": "%"},
      {"measurement": "CPM (x ± SD), activity of NK cells in mice in vitro", "setting": "NK cells [3]; 100 μl (1:2)", "result": "7892 ± 995", "unit": "CPM"},
      {"measurement": "Pi % (specific percentage inhibition, activity of NK cells) in vitro", "setting": "NK cells [3]; 100 μl (1:4)", "result": 54.5, "unit": "%"},
      {"measurement": "CPM (x ± SD), activity of NK cells in mice in vitro", "setting": "NK cells [3]; 100 μl (1:4)", "result": "5544 ± 85", "unit": "CPM"},
      {"measurement": "Pi % (specific percentage inhibition, activity of NK cells) in vitro", "setting": "NK cells [3]; 100 μl (stock solution)", "result": 29.5, "unit": "%"},
      {"measurement": "CPM (x ± SD), activity of NK cells in mice in vitro", "setting": "NK cells [3]; 100 μl (stock solution)", "result": "8625 ± 1135", "unit": "CPM"},
      {"measurement": "CPM (x ± SD), production of IL-2 in mice suffering from L1210 leukemia", "setting": "IL-2", "result": "2750 ± 123", "unit": "CPM"}
    ]}
  ]
}
